Assay results as given in patent publication US5900434A, “Method for inhibiting the production of interleukin-1 or tumor necrosis factor-α by administering acanthoic acid” (Korea Institute of Science and Technology, priority 1994, dated 1999).

How the values were obtained:
[1] = test system: experimental silicosis in rat; experiment: Experimental silicosis in rat, lung histology; assay type: in vivo, Sprague-Dawley rat; conditions: silica 50 mg intrabronchial, 10 mg orally twice a week, 12 to 18 weeks, FIG. 9
Protocol: For the purpose of confirming the in vivo anti-fibrogenic activity of acanthoic acid, an experimental silicosis model was established and the effect of acanthoic acid on the silicosis model when administered thereto was determined.
Silica was refined by removing any contaminant, e.g., Fe2 O3, therefrom in accordance with the method of Lugano as described in Am. J. Pathol., 109, 27-36(1982) as follows. Silica powder(Sigma, St. Louis, Mo.; the content of the particles having a diameter of 5 μm is at least 80%) was suspended in 1N HCl and the suspension was heated and washed with distilled water. The resultant was sterilized by dry heating at 200° C. for 2 hours and then used in the following experiment.
A 7 to 8 week-old male Sprague-Dawley rat and a 5-week old female ICR mouse were anesthetized by an intraperitoneal injection of 2 to 5 mg of ketamine chloride. The rat was injected into their bronchia with 50 mg of silica dissolved in 0.5 ml of sterilized PBS and the mouse was injected with 2 mg of silica dissolved in 0.1 ml of sterilized PBS, by using an 1 ml syringe. From the next day after the injection of silica, 10 mg of acanthoic acid was administered orally to the rat and mouse twice a week for a period ranging from 12 to 18 weeks. […]

[2] = test system: prostaglandin E2 (PGE2) synthesis; conditions: cited from earlier work
[3] = test system: H2O2 production in human monocytes and macrophages; experiment: Production of H2O2 in silica-stimulated human monocytes and macrophages; assay type: cell-based; conditions: 10 μg/ml, 1 hour, 100 μg/ml silica, FIG. 5
Protocol: Normal human peripheral blood was heparin-treated and diluted with equal amount of Hank's balanced salt solution (HBSS: Ca^2+ and Mg^2+ free). The diluted blood was put into a centrifuge tube containing therein Ficoll-Hypaque(Sigma, St. Louis, Mo., U.S.A.) layer having a density of 1.077 piled up on Ficoll-Hypaque layer having a density of 1.119, and then centrifuged at 700×g for 30 minutes to obtain monocytes from the layer between Ficoll-Hypaque layer having a density of 1.077 and serum layer, and neutrophils from the layer between Ficoll-Hypaque layer having a density of 1.077 and that having a density of 1.119. The separated cells were washed twice with 4° C. HBSS(Ca^2+ and Mg^2+ free) and suspended in RPMI 1640 medium(Gibco, Grand Island, N.Y., U.S.A.) containing 10% fetal bovine serum(FBS, Hyclone, Logan, Utah, U.S.A.). […] The amount of H2 O2 was determined by a microassay employing 96-well microplate as follows. […] When the incubation was completed, 3M NaOH was added to the wells in an amount of 25 μl/well to stop the reaction and O.D. was measured at 620 nm by using ELISA reader(Dynatech Lab. Inc.) to determine the change of colors with respect to the oxidation of phenol. The amount of H2 O2 was determined by employing a standard curve prepared by diluted H2 O2 (Sigma). […]

[4] = test system: H2O2 production in human neutrophils; experiment: Production of H2O2 in human neutrophils (PMA-stimulated); assay type: cell-based
Protocol: Normal human peripheral blood was heparin-treated and diluted with equal amount of Hank's balanced salt solution (HBSS: Ca^2+ and Mg^2+ free). The diluted blood was put into a centrifuge tube containing therein Ficoll-Hypaque(Sigma, St. Louis, Mo., U.S.A.) layer having a density of 1.077 piled up on Ficoll-Hypaque layer having a density of 1.119, and then centrifuged at 700×g for 30 minutes to obtain monocytes from the layer between Ficoll-Hypaque layer having a density of 1.077 and serum layer, and neutrophils from the layer between Ficoll-Hypaque layer having a density of 1.077 and that having a density of 1.119. The separated cells were washed twice with 4° C. HBSS(Ca^2+ and Mg^2+ free) and suspended in RPMI 1640 medium(Gibco, Grand Island, N.Y., U.S.A.) containing 10% fetal bovine serum(FBS, Hyclone, Logan, Utah, U.S.A.). The suspensions were added to the wells of 24-well incubation plate(Costar, Cambridge, Mass., U.S.A.) and incubated at 37° C. for 2 hours to obtain monocytes, macrophages and neutrophils. Inflammatory responses are known as a cascade reaction comprising the secretion of various cytokines, e.g., IL-1, from immune cells stimulated by various stimulants; production of phospholipase A2, lysosomal enzyme, reactive oxygen species, etc. by other immune cells stimulated by said cytokines; and damage of tissues induced by the above products(Pruzanski, W. and […]., Immunol. Today, 12, 143(1991)). The ability of acanthoic acid to block the inflammatory reactions was tested by measuring their inhibitory activity to the production of reactive oxygen species, i.e., H2 O2 and O2^-. The amount of H2 O2 was determined by a microassay employing 96-well microplate as follows. 5×10^5 cells of neutrophils were added to each of the wells containing RPMI 1640 medium, and then 25 μl of horseradish peroxidase (500 μg/ml; type II, Sigma) and 75 μl of phenol red(1 mg/ml) were added to each of the wells. Thereafter, the cells were treated with 10, 20 and 50 μg/ml of acanthoic acid for an hour, stimulated with 10^-7 M phorbol myristate acetate(PMA) and then incubated at 37° C. for 60 minutes. When the incubation was completed, 3M NaOH was added to the wells in an amount of 25 μl/well to stop the reaction and O.D. was measured at 620 nm by using ELISA reader(Dynatech Lab. Inc.) to determine the change of colors with respect to the oxidation of phenol. The amount of H2 O2 was determined by employing a standard curve prepared by diluted H2 O2 (Sigma).

## C=C[C@@]1(C)CC=C2C(CCC3[C@](C)(C(=O)O)CCC[C@@]23C)C1 (single isomer, unassigned; (-)) [acanthoic acid, (-)-pimara-9(11),15-diene-19-oic acid]
[1]
  lung histology, granuloma and fibrosis (experimental silicosis): only small-sized granulomas which is not coalesce with each other and a slight fibrosis are observed
[2]
  inhibition of prostaglandin E2 (PGE2) synthesis: inhibit
[3]
  amount of H2O2: decrease significantly
[4]; Neutrophil, 1 h, PMA + acanthoic acid 10 μg/ml, PMA = 100, read-out: Amount of produced reactive oxygen species, H2O2 (% to the control group)
  activity at 10 µg/mL: 70%
[4]; Neutrophil, 1 h, PMA + acanthoic acid 20 μg/ml, PMA = 100, read-out: Amount of produced reactive oxygen species, H2O2 (% to the control group)
  activity at 20 µg/mL: 37.4%
[4]; Neutrophil, 1 h, PMA + acanthoic acid 50 μg/ml, PMA = 100, read-out: Amount of produced reactive oxygen species, H2O2 (% to the control group)
  activity at 50 µg/mL: 15.8%
[4]; PMA + acanthoic acid 10 μg/ml
  Amount of produced reactive oxygen species, H2O2: 72.6 nM/60 min.
[4]; PMA + acanthoic acid 20 μg/ml
  Amount of produced reactive oxygen species, H2O2: 38.7 nM/60 min.
[4]; PMA + acanthoic acid 50 μg/ml
  Amount of produced reactive oxygen species, H2O2: 16.4 nM/60 min.
